Experimental data from patent US9283236B2 (HUMAN MATRIX SCIENCES, LLC, priority 2008, dated 2016).
“Also recorded” adds a separate entry of the source. Read-outs that look alike come from different tables or passages of the source.

Tests used:
[1] = test system: human fetal cardiac fibroblasts; assay: Quantitative assay of [3H]valine-labeled insoluble elastin; format: cell-based; details: for effect on aldosterone-induced increase in insoluble elastin production: agent added 1 hour before aldosterone (50 nM or 1 to 50 nmol/L)
[2] = test system: human fetal cardiac fibroblasts; assay: One-step RT-PCR of elastin mRNA in cardiac fibroblast cultures; format: cell-based; details: for effect on aldosterone-induced increase in elastin mRNA levels: agent added 1 hour (CT04 2 hours) before aldosterone
[3] = test system: human fetal cardiac fibroblasts; assay: One-step RT-PCR of collagen type I mRNA in cardiac fibroblast cultures; format: cell-based; details: 1 hour pretreatment before 1 to 50 nmol/L aldosterone; spironolactone 2 μmol/L, RU 486 1 μmol/L
[4] = test system: human fetal cardiac fibroblasts; assay: Immunostaining of collagen type I fibers in confluent cultures; format: cell-based; details: pretreatment before 1 to 50 nmol/L aldosterone; RU 486 1 μmol/L; FIG. 1
[5] = test system: human fetal cardiac fibroblasts; assay: Quantitative assay of [3H]valine-labeled immunoprecipitable tropoelastin; format: cell-based; details: spironolactone with 1 to 50 nmol/L aldosterone, 72 hours
Method: Fetal human cardiac fibroblasts were grown to confluence in 35-mm culture dishes (100,000 cells/dish) in quadruplicate. […] Cultures were incubated for 72 hours, and the soluble and insoluble elastin were assessed separately in each dish. The cells were extensively washed with phosphate-buffered saline, and the soluble proteins present in the intracellular compartments were extracted overnight at 4° C. with 0.1 mol/L acetic acid in the presence of proteinase inhibitors. After centrifugation, the supernatants were precleaned by 30-minute incubation with 50 μl of 4% protein A-beaded agarose, and then 500 μl of the supernatant was incubated with 5 μg of polyclonal antibody to tropoelastin for 2 hours and subsequently with 50 μl of 4% protein A-beaded agarose for 3 hours at 4° C. The protein A-containing beads were sedimented by centrifugation, washed with immunoprecipitation buffer, mixed with scintillation fluid, and counted. […] The resulting pellets containing the insoluble elastin were then solubilized by boiling in 200 μl of 5.7 N HCl for 1 hour, and the aliquots were mixed in scintillation fluid and counted. […] Final results reflecting amounts of metabolically labeled insoluble elastin in individual cultures were normalized per their DNA content and expressed as counts per minute per 1 μg of DNA.

[6] = test system: adult human cardiac fibroblasts; assay: One-step RT-PCR of elastin mRNA in adult cardiac fibroblasts; format: cell-based; details: 1 hour pretreatment before aldosterone
[7] = test system: adult human cardiac fibroblasts; assay: Anti-elastin immunostaining in adult cardiac fibroblasts; format: cell-based; details: spironolactone pretreatment
Method: Control cell cultures received an equal amount of the solvent vehicle. […] ScienCell (San Diego, Calif.). At the end of the 72-hour incubation period with the indicated treatment, confluent cultures were either fixed in ice-cold 100% methanol at -20° C. […] The cultures were then incubated for 1 hour with 10 μg/ml polyclonal antibody to tropoelastin or with 10 μg/ml polyclonal antibody to collagen type I. All cultures were then incubated for an additional hour with fluorescein-conjugated goat anti-rabbit or with fluorescein-conjugated rabbit anti-goat secondary antibodies to detect elastin and collagen type I staining, respectively. Nuclei were counterstained with propidium iodide. Secondary antibody alone was used as a control. All of the cultures were then mounted in Elvanol and examined with a Nikon Eclipse […] microscope attached to a cooled charge-coupled device camera (Retiga EX; QImaging, Surrey, BC, Canada) and a computer-generated video analysis system (Image-Pro Plus software; Media Cybernetics, Silver Spring, Md.).

[8] = test system: IGF-IR; assay: IGF-IR immunoprecipitation and anti-phosphotyrosine blot; format: cell-based, human
Method: Cells were lysed using an radioimmunoprecipitation assay buffer [50 mmol/L Tris-HCl, pH 7.4, 150 mmol/L NaCl, 1 mmol/L ethylenediamine tetraacetic acid, 10 mmol/L NaF, 1% Triton X-100, 0.1% sodium dodecyl sulfate, 1% sodium deoxycholate containing a cocktail of antiproteases (20 μg/ml leupeptin, 10 μg/ml aprotinin, 0.1 mmol/L phenylmethylsulfonyl fluoride, and 1 mmol/L dithiothreitol) and antiphosphates ([…] orthovanadate and 2 μg/ml pepstatin)], and 300 μg of protein extract was incubated with an antibody against IGF-IRβ for 1 hour at 4° C., followed by the addition of 4% protein A-beaded agarose left overnight, as previously described. The resulting protein-antibody conjugate was centrifuged at 4° C. and washed four times with phosphate-buffered saline. The final pellet was resuspended in sample buffer (0.5 mol/L Tris-HCl, pH 6.8, 10% sodium dodecyl sulfate, 10% glycerol, 4% 2-B-mercaptoethanol, and 0.05% bromphenol blue), and the mixture was boiled for 5 minutes. Proteins were resolved by 12% sodium dodecyl sulfate-polyacrylamide gel electrophoresis, transferred to nitrocellulose membranes, and then immunoblotted with anti-p-Tyr or anti-IGF-IR antibodies. The degree of expression or phosphorylation of immunodetected signaling molecules was measured by densitometry.
At the end of each experiment the cells were lysed as specified above, and 300 μg of protein extract were then precleared for 1 hour with normal rabbit agarose conjugated-IgG at 4° C. and incubated with rabbit polyclonal antibodies against IGF-IR-β, c-Src, or with Gα13 for 1 hour at 4° C., followed by the addition of 4% protein A-beaded agarose and left overnight. The resulting protein-antibody conjugate was centrifuged at 4° C. and washed four times with PBS. The final pellet was resuspended in sample buffer, and the proteins were resolved. Following immunoprecipitation of IGF-IR-β, the membrane was immunoblotted using monoclonal anti-p-Tyr antibody, stripped, and reprobed using anti-IGF-IR-β. Following immunoprecipitation of c-Src, the membranes were immunoblotted using polyclonal goat antibodies against anti-Gα13, while those immunoprecipitated with anti-Gα13 were developed with monoclonal anti-c-Src antibody. Blots were stripped and re-probed for equal loading.
The degree of expression or phosphorylation of immunodetected signaling molecules was measured by densitometry.

[9] = test system: Gα13 and c-Src; assay: Co-immunoprecipitation of Gα13 and c-Src; format: cell-based, human; details: vs untreated controls
[10] = agent added before aldosterone, readout not specified, partly data not shown

## pertussis toxin
[1]; 72 hours
  effect on aldosterone-induced increase in insoluble elastin production: did not inhibit the elastogenic effect of aldosterone
[1]; [10]
  effect on aldosterone-induced increase in elastin production (elastogenic response): did not abrogate the aldosterone-induced increase in elastin production; also recorded: does not attenuate the pro-elastogenic effect of aldosterone

## COc1cc2ncnc(Nc3cccc(Cl)c3)c2cc1OC [AG 1478]
[1]; [10]
  effect on aldosterone-induced increase in elastin production (elastogenic response): did not affect the aldosterone-induced increase in elastin production

## Cc1cc2ncc(-c3ccccc3)nc2cc1C [AG 1295]
[1]; [10]
  effect on aldosterone-induced increase in elastin production (elastogenic response): did not affect the aldosterone-induced increase in elastin production

## C[C@@H](N)[C@H]1CC[C@H](C(=O)Nc2ccncc2)CC1 [Y-27632]
[2]; 24 hours
  effect on aldosterone-induced increase in elastin mRNA levels: did not eliminate the aldosterone-induced increase in elastin mRNA expression
[1]; [10]
  effect on aldosterone-induced increase in elastin production (elastogenic response): did not eliminate the aldosterone-induced increase in elastin mRNA expression and elastin production

## CC(=O)S[C@@H]1CC2=CC(=O)CC[C@]2(C)[C@H]2CC[C@@]3(C)[C@@H](CC[C@@]34CCC(=O)O4)[C@H]12 [spironolactone]
[3]
  effect on aldosterone-induced increase in collagen type I mRNA levels: returned the aldosterone-induced increase in collagen type I mRNA levels to untreated values
[4]
  effect on aldosterone-induced collagen production: abrogated aldosterone-induced collagen production; also recorded: eliminated any aldosterone-induced increase in collagen type I production
[2]; 24 hours
  effect on aldosterone-induced increase in elastin mRNA levels: failed to prevent an aldosterone-induced increase in elastin mRNA expression; also recorded: neither spironolactone nor RU 486 eliminated this increase
[5]
  effect on aldosterone-induced increase in tropoelastin production: failed to prevent; also recorded: did not abrogate the increase in tropoelastin production
[1]; 72 hours
  effect on aldosterone-induced increase in insoluble elastin production: failed to prevent; also recorded: did not eliminate the increase in insoluble elastin production
[6]
  effect on aldosterone-induced increase in elastin mRNA, adult cardiac fibroblasts: had no effect on the aldosterone-induced increase in elastin mRNA transcript levels
[7]
  effect on aldosterone-induced increase in elastic fiber deposition, adult cardiac fibroblasts: did not affect aldosterone-induced increase in elastic fiber deposition

## CC#C[C@]1(O)CC[C@H]2[C@@H]3CCC4=CC(=O)CCC4=C3[C@@H](c3ccc(N(C)C)cc3)C[C@@]21C [RU 486, mifepristone]
[3]
  effect on aldosterone-induced increase in collagen type I mRNA levels: had no effect on the aldosterone-induced increase in collagen type I mRNA transcript levels
[4]
  effect on aldosterone-induced collagen production: but not with the glucocorticoid receptor (GR) antagonist RU 486 (1 μmol/L), abrogated aldosterone-induced collagen production
[2]; 24 hours
  effect on aldosterone-induced increase in elastin mRNA levels: had no effect on the aldosterone-induced increase in elastin mRNA levels; also recorded: neither spironolactone nor RU 486 eliminated this increase

## NC(=O)c1ccc(-c2nc(-c3ccc4c(c3)OCO4)c(-c3ccccn3)[nH]2)cc1 [SB 431542]
[1]; [10]
  effect on aldosterone-induced increase in elastin production (elastogenic response): did not affect the aldosterone-induced increase in elastin production

## CT04: cell-permeable Rho inhibitor (exoenzyme C3 transferase) from Cytoskeleton, Inc.
[2]; 24 hours
  effect on aldosterone-induced increase in elastin mRNA levels: did not eliminate the aldosterone-induced increase in elastin mRNA expression
[1]; [10]
  effect on aldosterone-induced increase in elastin production (elastogenic response): did not eliminate the aldosterone-induced increase in elastin mRNA expression and elastin production

## CCCCc1nc(Cl)c(CO)n1Cc1ccc(-c2ccccc2-c2nn[nH]n2)cc1 [losartan, Losartan]
[1]; [10]
  effect on aldosterone-induced increase in elastin production (elastogenic response): did not abrogate their elastogenic response to aldosterone

## CC(C)(C)c1cc(C=C(C#N)C#N)cc(Br)c1O [AG 1024]
[2]; 24 hours
  effect on aldosterone-induced increase in elastin mRNA levels: eliminated the stimulatory effect of aldosterone on elastin mRNA expression; also recorded: abolished aldosterone- and IGF-I-induced increases in elastin mRNA transcript levels
[2]; pretreatment or siRNA transfection before 100 ng/ml IGF-I
  effect on IGF-I-induced increase in elastin mRNA levels: could be prevented; also recorded: abolished aldosterone- and IGF-I-induced increases in elastin mRNA transcript levels
[1]; 72 hours
  effect on aldosterone-induced increase in insoluble elastin production: eliminated the stimulatory effect of aldosterone on elastin mRNA expression and insoluble elastin production; also recorded: returned insoluble elastin production to control values
[1]; pretreatment or siRNA transfection before 100 ng/ml IGF-I, 72 hours
  effect on IGF-I-induced increase in insoluble elastin production: could be prevented; also recorded: returned insoluble elastin production to control values

## COc1cccc(-c2cc(=O)c3ccccc3o2)c1N [PD 98059]
[1]; 10 μM, 72 hours, 10% FBS, vs untreated control
  insoluble elastin production, inhibitor alone: significantly increased insoluble elastin production
[1]; 72 hours
  effect on aldosterone-induced increase in insoluble elastin production: did not eliminate the elastogenic effect of aldosterone but instead led to a further increase in the production of elastin; also recorded: further increased insoluble elastin production

## IGF-I: recombinant human insulin-like growth factor-I
[2]; 100 ng/ml IGF-I, 24 hours
  elastin mRNA levels: approximately threefold increase
[1]; 100 ng/ml IGF-I, 72 hours
  net production of insoluble elastin: approximately threefold increase
[8]; 10-minute exposure, 10% fetal bovine serum, aldosterone or BSA-conjugate 50 nM, IGF-I 100 ng/ml
  tyrosine phosphorylation of the IGF-IR: produced a very similar effect
[8]; presence vs absence of fetal bovine serum
  tyrosine phosphorylation of the IGF-IR, dependence on serum: induced phosphorylation of its IGF-IR, both in the presence and in the absence of fetal bovine serum

## aluminum fluoride
[9]
  interaction between c-Src and Gα13: increased the interaction between c-Src and Gα13

## Cc1cc(Cn2cnc3c2C[C@@H](C(=O)O)N(C(=O)C(c2ccccc2)c2ccccc2)C3)ccc1N(C)C [PD 123319]
[1]; [10]
  effect on aldosterone-induced increase in elastin production (elastogenic response): did not abrogate their elastogenic response to aldosterone

## CN[C@@H]1C[C@H]2O[C@@](C)([C@@H]1OC)n1c3ccccc3c3c4c(c5c6ccccc6n2c5c31)C(=O)NC4 [staurosporine]
[1]
  effect on aldosterone-induced increase in elastin production (elastogenic response): did not abrogate the aldosterone-induced increase in elastin production
